From patent US11618738B2, “Compound and application thereof in treating inflammation or inflammation-related diseases” (SICHUAN CENTER FOR TRANSLATIONAL MEDICINE OF TRADITIONAL …, priority 2017, dated 2023) come the findings set out here.

In assay [1] the test system is PGE2 induced by LPS. As to the kind of experiment: Inhibition of LPS-induced PGE2 in RAW 264.7 cells (ELISA). Format: cell-based, mice. As to the method:
This example is taken from a previous publication by Song et al.^[1]. In brief, mice RAW 264.7 cells were treated with increasing doses of each test compound at 37° C. for 1 hour. Thereafter, the cells were attacked with 20 μL/well of LPS (equivalent to a final concentration of 100 ng/mL). The cells were further incubated overnight at 37° C. A commercial ELISA assay kit obtained from R&D Systems (Minneapolis, Minn.) was used to determine the level of PGE2 in the supernatant, and three parallel experiments were performed. The optical density of each well was measured using a BioTek Epoch microplate reader (Winooski, Vt.) set to 450 nm. The NO study was performed in a similar manner, but Greiss reagent was used to monitor the level of NO, and the results were read at 550 nm.

Assay [2] concerns writhing response of mice with acetic acid. As to the kind of experiment: Writhing response of mice induced by intraperitoneal glacial acetic acid. Format: in vivo. The following applies: for Writhing reaction inhibition percentage (%): mean ± SD; for writhing response in mice induced by acetic acid (in words): the four dose groups (25-200 mg/kg). On the procedure: After glacial acetic acid is injected into the abdominal cavity of mice, it can cause inflammatory pain and cause writhing reaction in mice. In this experiment, the analgesic effects of UTLOH compounds were observed by the number of writhing times in mice after intraperitoneal injection of glacial acetic acid.
Taking 100 KM mice, SPF grade, half male and half […] (18-22 g/mouse), and randomly grouping them according to their body weight. Except that the blank control group was given 0.5% CMC-Na suspension by gavage administration, the other groups were given the corresponding drugs by gavage for 3 continuous days, once a day, with a gavage volume of 0.2 ml/10 g. 30 minutes after the administration on the 3rd day, each group of mice was intraperitoneally injected with 0.6% glacial acetic acid, 0.1 ml/10 g, to create writhing reaction model in mice.

In assay [3] the target is T1, xanthine oxidase (XOD) (Mus musculus, UniProt Q00519).
T1 construct: from tissue; host or cells: liver of KM mice (homogenate supernatant)
T1 sequence (Q00519 whole entry): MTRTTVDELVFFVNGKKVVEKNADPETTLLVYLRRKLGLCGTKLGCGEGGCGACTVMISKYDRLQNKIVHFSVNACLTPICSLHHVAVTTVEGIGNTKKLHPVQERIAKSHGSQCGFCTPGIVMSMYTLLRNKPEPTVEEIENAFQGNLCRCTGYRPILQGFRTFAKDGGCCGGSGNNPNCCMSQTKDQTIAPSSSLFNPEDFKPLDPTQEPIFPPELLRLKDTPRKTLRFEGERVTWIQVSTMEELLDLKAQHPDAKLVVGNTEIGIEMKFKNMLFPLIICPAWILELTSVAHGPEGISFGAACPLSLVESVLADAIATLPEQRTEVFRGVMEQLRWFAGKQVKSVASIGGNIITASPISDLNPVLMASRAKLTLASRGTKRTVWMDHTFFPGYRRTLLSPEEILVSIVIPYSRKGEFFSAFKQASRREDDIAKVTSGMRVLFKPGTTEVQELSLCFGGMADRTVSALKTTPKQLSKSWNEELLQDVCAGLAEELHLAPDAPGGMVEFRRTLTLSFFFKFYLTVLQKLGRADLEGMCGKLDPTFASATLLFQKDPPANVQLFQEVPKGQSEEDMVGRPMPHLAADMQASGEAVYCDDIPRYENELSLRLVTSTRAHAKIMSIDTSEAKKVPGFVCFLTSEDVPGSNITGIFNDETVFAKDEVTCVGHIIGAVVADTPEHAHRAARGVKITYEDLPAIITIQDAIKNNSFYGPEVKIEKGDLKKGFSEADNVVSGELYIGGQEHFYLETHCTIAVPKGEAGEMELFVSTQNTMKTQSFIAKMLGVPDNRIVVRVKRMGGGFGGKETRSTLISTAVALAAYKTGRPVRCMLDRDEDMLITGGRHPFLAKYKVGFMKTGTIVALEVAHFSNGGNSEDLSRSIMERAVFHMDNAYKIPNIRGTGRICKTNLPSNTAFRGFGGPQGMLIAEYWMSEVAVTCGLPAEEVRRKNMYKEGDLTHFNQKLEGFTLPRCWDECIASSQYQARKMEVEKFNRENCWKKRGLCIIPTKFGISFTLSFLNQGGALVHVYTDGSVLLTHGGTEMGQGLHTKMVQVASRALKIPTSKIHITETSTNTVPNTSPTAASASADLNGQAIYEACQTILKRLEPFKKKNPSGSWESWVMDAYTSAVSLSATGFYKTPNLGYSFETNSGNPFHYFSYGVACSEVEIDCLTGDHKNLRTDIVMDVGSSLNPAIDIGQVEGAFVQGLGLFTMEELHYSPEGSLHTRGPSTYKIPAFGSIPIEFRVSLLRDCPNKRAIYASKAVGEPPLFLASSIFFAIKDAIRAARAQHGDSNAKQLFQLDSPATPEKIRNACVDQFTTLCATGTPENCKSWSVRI
The experiment in a line: Liver XOD activity in OA-induced hyperuricemia model mice. It is filed as in vivo. The note with it: for XOD(U/gprot): liver homogenate, mean ± SD. As to the method:
(§1) SPF grade KM mice, half female and half male (18-22 g/mouse). After the animals were adaptively fed for 3 days, they were randomly grouped by body weight. It was administered once a day for 7 consecutive days by gavage. On the 7th day, 1 hour before the gavage administration, the mice were intraperitoneally injected with a dose of 300 mg/kg of oxonic acid potassium salt. After the administration, the eyeballs were removed to take blood, and the serum was separated for testing. After decapitation, the liver was taken, weighed, cut into pieces, added with saline, homogenized, and centrifuged. Operated according to the kit instructions to determine the blood uric acid (UA) level in each group of mice; determine the xanthine oxidase (XOD) activity in the supernatant of mouse liver homogenate.

For assay [4], the system named is OA-induced hyperuricemia model mice. The experiment in a line: Serum UA in oxonic acid potassium salt-induced hyperuricemia model mice. Format: in vivo. The note with it: for UA: serum, oxonic acid potassium salt 300 mg/kg i.p., mean ± SD. On the procedure:
Oxoxazine potassium salt can directly increase blood uric acid levels in animals. In this experiment, intraperitoneal injection of oxonic acid potassium salt was used to observe the uric acid-lowering effect of UTLOH series drugs.
as §1

Setting [5] is: 25 mg/kg gavage once a day for 3 days.
Where [6] appears, read: 50 mg/kg gavage once a day for 3 days.
Where [7] appears, read: 100 mg/kg gavage once a day for 3 days.
The mark [8] stands for this setting: 200 mg/kg gavage once a day for 3 days.
[9] abbreviates: 6.25 mg/kg gavage once a day for 7 days.
The mark [10] stands for this setting: 12.5 mg/kg gavage once a day for 7 days.

Regarding `Cc1cc(C(=O)Nc2ccccc2O)no1` [UTLOH-4a], the “PGE2 inhibition (%)” value in assay [1] (RAW 264.7 cells, LPS 100 ng/mL, overnight, test concentration not given) stood at 98.5%. Also, the “inhibition on PGE2 compared to leflunomide (in words)” value in assay [1] (compared to leflunomide) is “stronger”. The “Writhing reaction inhibition percentage (%)” value was found to be 21.63 ± 29.24 % in assay [2] (setting [5]), 24.26 ± 10.11 % in assay [2] (setting [6]), 28.48 ± 15.74 % in assay [2] (setting [7]) and 23.05 ± 10.08 % in assay [2] (setting [8]). The “writhing response in mice induced by acetic acid (in words)” value in assay [2] is “significantly inhibit”.

Take `Cc1cc(C(=O)Nc2ccc(O)cc2O)no1` [UTLOH-4e]: the “PGE2 inhibition rate (in words)” value in assay [1] (same experimental method as Table 1) was “very good”. Moreover, the “XOD(U/gprot)” value is given as 21.55 ± 2.00 U/gprot in assay [3] (setting [9]) and 22.54 ± 3.98 U/gprot in assay [3] (setting [10]). For the same compound, in assay [3] (versus model group), the “liver XOD activity of model mice (in words)” value is recorded as “significantly reduce”. Further, the “Writhing reaction inhibition percentage (%)” value in assay [2] (setting [5]) was 36.52 ± 10.08 %; in assay [2] (setting [6]), 35.63 ± 17.03 %; in assay [2] (setting [7]) it was 39.54 ± 15.18 %; in assay [2] (setting [8]), 30.14 ± 17.18 %. Besides, the “writhing response in mice induced by acetic acid (in words)” value in assay [2] is given as “significantly inhibit”. Besides, the figures for the “UA” value in assay [4] (setting [9]) and in assay [4] (setting [10]) were 50.07 ± 9.86 µmol/L and 47.15 ± 13.48 µmol/L, respectively. Further, in assay [4] (versus model group), the “level of uric acid in the serum of model mice (in words)” value was “significantly reduce”.
